According to ChEMBL document CHEMBL1909046, “DrugMatrix in vitro pharmacology data”:
pIC50: −log10 of the molar value.

Columns and labels:
Melanocortin receptor 4 = Melanocortin receptor 4 (Homo sapiens, UniProt P32245); assay type: cell membranes, Membrane; conditions: hek293; also: in other assays of this panel Not Active means under 50% inhibition at 10 µM
[1] = target: Kappa-type opioid receptor (Homo sapiens, UniProt P41145); assay: DRUGMATRIX: Opiate kappa (OP2, KOP) radioligand binding (ligand: [3H] Diprenorphine); assay type: cell membranes, HEK293, Membrane; conditions: hek293; Not Active = under 50% inhibition at 10 µM
Sequence of Kappa-type opioid receptor (P41145 whole entry): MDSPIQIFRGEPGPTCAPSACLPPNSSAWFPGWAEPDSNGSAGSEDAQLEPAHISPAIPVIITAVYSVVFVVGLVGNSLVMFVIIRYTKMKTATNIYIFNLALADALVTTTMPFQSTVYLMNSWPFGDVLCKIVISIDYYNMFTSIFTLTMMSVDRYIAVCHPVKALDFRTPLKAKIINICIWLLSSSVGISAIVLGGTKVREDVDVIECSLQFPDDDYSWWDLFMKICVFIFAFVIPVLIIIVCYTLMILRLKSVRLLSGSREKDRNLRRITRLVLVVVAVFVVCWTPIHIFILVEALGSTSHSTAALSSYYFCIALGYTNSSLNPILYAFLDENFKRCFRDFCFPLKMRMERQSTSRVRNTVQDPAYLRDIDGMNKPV

[2] = DRUGMATRIX: beta-Lactamase enzyme inhibition (substrate: Nitrocefin); design: species or system Bacillus cereus; conditions: Not Active = under 50% inhibition at 10 µM
Cytochrome P450 2C9 = Cytochrome P450 2C9 (Homo sapiens, UniProt P11712); conditions: bti-tn-5b1-4; also: in other assays of this panel Not Active means under 50% inhibition at 10 µM
Sequence of Cytochrome P450 2C9 (P11712 whole entry): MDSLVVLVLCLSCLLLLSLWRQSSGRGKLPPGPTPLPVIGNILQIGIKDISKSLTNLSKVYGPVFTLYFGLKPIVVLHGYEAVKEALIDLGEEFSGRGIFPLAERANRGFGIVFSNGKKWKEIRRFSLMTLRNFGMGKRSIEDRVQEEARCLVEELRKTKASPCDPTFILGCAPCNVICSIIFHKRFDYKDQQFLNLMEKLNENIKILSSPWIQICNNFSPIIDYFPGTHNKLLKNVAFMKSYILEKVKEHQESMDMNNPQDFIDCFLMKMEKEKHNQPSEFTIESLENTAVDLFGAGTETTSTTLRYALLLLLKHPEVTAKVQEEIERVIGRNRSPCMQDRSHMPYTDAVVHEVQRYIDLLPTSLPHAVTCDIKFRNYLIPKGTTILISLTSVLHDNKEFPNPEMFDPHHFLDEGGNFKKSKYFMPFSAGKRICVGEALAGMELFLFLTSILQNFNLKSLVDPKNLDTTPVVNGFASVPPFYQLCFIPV

Acetylcholinesterase = Acetylcholinesterase (Homo sapiens, UniProt P22303); assay: DRUGMATRIX: Acetylcholinesterase enzyme inhibition (substrate: acetylthiocholine); assay type: cell-based, HEK293; conditions: Not Active = under 50% inhibition at 10 µM; for IC50: hek293
Sequence of Acetylcholinesterase (P22303 whole entry): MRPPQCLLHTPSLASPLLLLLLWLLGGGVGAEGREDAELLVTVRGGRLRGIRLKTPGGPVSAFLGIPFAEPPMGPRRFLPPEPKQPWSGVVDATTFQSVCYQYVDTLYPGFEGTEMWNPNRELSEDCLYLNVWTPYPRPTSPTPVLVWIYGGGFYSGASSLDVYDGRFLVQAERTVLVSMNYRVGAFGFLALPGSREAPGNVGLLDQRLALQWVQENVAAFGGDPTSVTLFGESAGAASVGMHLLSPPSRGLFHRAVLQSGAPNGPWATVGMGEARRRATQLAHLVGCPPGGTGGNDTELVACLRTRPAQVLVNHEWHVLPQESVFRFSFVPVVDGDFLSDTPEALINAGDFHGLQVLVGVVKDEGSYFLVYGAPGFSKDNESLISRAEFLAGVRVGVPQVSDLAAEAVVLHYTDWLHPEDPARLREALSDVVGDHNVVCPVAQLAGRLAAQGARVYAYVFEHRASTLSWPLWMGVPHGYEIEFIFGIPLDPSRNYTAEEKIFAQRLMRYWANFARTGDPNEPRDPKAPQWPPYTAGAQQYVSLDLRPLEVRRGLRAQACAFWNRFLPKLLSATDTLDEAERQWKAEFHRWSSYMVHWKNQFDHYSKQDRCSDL

[3] = target: T1, 3-hydroxy-3-methylglutaryl-coenzyme A reductase (Homo sapiens, UniProt P04035); design: species or system Escherichia coli;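 also: enzyme inhibition assay of HMG-CoA reductase using radiolabeled [14C]HMG-CoA as substrate; in other assays of this panel Not Active means under 50% inhibition at 10 µM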
T1 sequence (P04035 whole entry): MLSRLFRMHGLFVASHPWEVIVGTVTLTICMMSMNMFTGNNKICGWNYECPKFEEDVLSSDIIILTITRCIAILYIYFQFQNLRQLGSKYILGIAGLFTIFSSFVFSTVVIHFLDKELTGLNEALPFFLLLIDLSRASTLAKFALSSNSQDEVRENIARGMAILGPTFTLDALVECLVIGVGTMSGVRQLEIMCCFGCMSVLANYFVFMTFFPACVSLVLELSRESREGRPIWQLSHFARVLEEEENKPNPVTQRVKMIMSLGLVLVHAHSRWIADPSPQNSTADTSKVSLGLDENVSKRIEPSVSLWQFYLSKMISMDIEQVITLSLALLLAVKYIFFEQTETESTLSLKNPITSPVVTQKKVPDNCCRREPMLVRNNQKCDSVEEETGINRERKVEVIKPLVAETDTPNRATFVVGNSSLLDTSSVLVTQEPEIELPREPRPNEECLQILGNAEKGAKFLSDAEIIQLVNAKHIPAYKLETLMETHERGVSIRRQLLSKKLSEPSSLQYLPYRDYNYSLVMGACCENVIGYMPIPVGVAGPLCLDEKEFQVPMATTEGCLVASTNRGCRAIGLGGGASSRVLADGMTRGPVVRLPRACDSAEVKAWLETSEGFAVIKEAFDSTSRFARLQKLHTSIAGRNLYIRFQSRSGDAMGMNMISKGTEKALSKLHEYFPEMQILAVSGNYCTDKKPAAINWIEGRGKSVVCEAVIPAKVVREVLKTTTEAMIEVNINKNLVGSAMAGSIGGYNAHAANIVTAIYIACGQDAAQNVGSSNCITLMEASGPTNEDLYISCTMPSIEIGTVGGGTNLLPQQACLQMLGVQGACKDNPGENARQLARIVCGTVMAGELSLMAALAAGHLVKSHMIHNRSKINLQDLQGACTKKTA

[4] = target: T2, Alpha-1B adrenergic receptor (Rattus norvegicus, UniProt P15823); assay: DRUGMATRIX: Alpha-1B adrenergic receptor radioligand binding (ligand: prazosin); assay type: cell membranes, Wistar, Liver, Membrane; conditions: Not Active = under 50% inhibition at 10 µM
T2 sequence (P15823 whole entry): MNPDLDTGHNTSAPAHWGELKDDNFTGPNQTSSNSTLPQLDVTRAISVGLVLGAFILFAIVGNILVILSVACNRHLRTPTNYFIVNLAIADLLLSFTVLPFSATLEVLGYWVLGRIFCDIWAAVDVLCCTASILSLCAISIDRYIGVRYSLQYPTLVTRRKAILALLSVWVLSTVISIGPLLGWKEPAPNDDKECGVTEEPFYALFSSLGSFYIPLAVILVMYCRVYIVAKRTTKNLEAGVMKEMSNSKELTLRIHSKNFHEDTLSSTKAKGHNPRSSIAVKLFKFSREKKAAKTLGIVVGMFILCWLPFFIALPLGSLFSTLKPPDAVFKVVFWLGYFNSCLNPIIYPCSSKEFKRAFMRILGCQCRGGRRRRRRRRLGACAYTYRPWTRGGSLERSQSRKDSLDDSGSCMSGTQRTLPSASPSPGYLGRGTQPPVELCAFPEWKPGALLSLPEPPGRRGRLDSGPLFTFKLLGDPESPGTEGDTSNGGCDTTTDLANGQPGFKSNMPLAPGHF

Glycine receptor = Glycine receptor (Rattus norvegicus, UniProt P22771+P24524+P07727+P20781); assay type: cell membranes, Wistar, Spinal cord, Membrane; also: in other assays of this panel Not Active means under 50% inhibition at 10 µM

Sequence of Melanocortin receptor 4 (P32245 whole entry): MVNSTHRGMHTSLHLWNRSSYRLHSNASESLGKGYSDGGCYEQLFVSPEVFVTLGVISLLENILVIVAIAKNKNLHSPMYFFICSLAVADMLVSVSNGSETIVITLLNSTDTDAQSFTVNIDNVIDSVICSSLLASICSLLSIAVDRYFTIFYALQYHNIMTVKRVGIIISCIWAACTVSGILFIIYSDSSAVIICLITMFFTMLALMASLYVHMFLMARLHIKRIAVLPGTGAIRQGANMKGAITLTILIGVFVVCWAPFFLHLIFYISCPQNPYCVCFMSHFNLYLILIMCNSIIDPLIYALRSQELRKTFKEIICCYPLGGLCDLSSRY

SMILES | IC50 (Melanocortin receptor 4) | IC50 [1] | IC50 [2] | Ki [2] | IC50 (Cytochrome P450 2C9) | Ki (Cytochrome P450 2C9) | IC50 (Acetylcholinesterase) | IC50 [3] | IC50 [4] | IC50 (Glycine receptor) | pIC50 (Acetylcholinesterase; read-out: IC50)
C[C@H]([C@](O)(Cn1cncn1)c1ccc(F)cc1F)S(C)(=O)=O [GENACONAZOLE] | Not Active | Not Active | Not Active | Not Active | Not Active | Not Active | Not Active | Not Active | Not Active | Not Active | –
Cc1c(F)c(N2CCNC(C)C2)cc2c1c(=O)c(C(=O)O)cn2C1CC1 (stereo not given) [GREPAFLOXACIN] | Not Active | Not Active | Not Active | Not Active | Not Active | Not Active | Not Active | Not Active | Not Active | Not Active | –
C[C@]12CCC(=O)C=C1CC[C@@H]1[C@@H]2[C@@H](O)C[C@@]2(C)[C@H]1CC[C@]2(O)C(=O)CO [HYDROCORTISONE] | Not Active | Not Active | Not Active | Not Active | Not Active | Not Active | Not Active | Not Active | Not Active | Not Active | –
NC[C@H]1O[C@H](O[C@H]2[C@H](O)[C@@H](O[C@H]3O[C@H](CO)[C@@H](O)[C@H](N)[C@H]3O)[C@H](N)C[C@@H]2N)[C@H](O)[C@@H](O)[C@@H]1O [KANAMYCIN] | Not Active | Not Active | Not Active | Not Active | Not Active | Not Active | Not Active | Not Active | Not Active | Not Active | –
CC(C(=O)O)c1ccc(CC2CCCC2=O)cc1 (stereo not given) [LOXOPROFEN] | Not Active | Not Active | Not Active | Not Active | Not Active | Not Active | Not Active | Not Active | Not Active | Not Active | –
Cc1cccc(Nc2ccccc2C(=O)O)c1C [MEFENAMIC ACID] | Not Active | Not Active | Not Active | Not Active | Not Active | Not Active | Not Active | Not Active | Not Active | Not Active | –
COc1ccccc1OCC(O)COC(N)=O (stereo not given) [METHOCARBAMOL] | Not Active | Not Active | Not Active | Not Active | Not Active | Not Active | Not Active | Not Active | Not Active | Not Active | –
COC(=O)c1ccccc1O [METHYL SALICYLATE] | Not Active | Not Active | Not Active | Not Active | Not Active | Not Active | Not Active | Not Active | Not Active | Not Active | –
COc1ccc2cc(CCC(C)=O)ccc2c1 [NABUMETONE] | Not Active | Not Active | Not Active | Not Active | Not Active | Not Active | Not Active | Not Active | Not Active | Not Active | –
CNC(=C[N+](=O)[O-])NCCSCc1csc(CN(C)C)n1 [NIZATIDINE] | Not Active | Not Active | Not Active | Not Active | Not Active | Not Active | – | Not Active | Not Active | Not Active | 5.25
C[C@]12C/C(=C/O)C(=O)C[C@@H]1CC[C@@H]1[C@@H]2CC[C@@]2(C)[C@H]1CC[C@]2(C)O [OXYMETHOLONE] | Not Active | Not Active | Not Active | Not Active | Not Active | Not Active | Not Active | Not Active | Not Active | Not Active | –
CC(C)(CO)C(O)C(=O)NCCCO (stereo not given) [PANTHENOL] | Not Active | Not Active | Not Active | Not Active | Not Active | Not Active | Not Active | Not Active | Not Active | Not Active | –
CCCCC1C(=O)N(c2ccccc2)N(c2ccccc2)C1=O [PHENYLBUTAZONE] | Not Active | Not Active | Not Active | Not Active | Not Active | Not Active | Not Active | Not Active | Not Active | Not Active | –
Cc1cccc(Nc2cc(Cl)nc(SCC(=O)O)n2)c1C [PIRINIXIC ACID] | Not Active | Not Active | Not Active | Not Active | Not Active | Not Active | Not Active | Not Active | Not Active | Not Active | –
CC(C)(Sc1cc(C(C)(C)C)c(O)c(C(C)(C)C)c1)Sc1cc(C(C)(C)C)c(O)c(C(C)(C)C)c1 [PROBUCOL] | Not Active | Not Active | Not Active | Not Active | Not Active | Not Active | Not Active | Not Active | Not Active | Not Active | –
